By IC50 is commonly meant the concentration needed to halve the response being measured. The low end stands for greater potency, the high end for weaker potency.

In test [1] the test system is pY641-STAT6 in Peripheral Blood Mononuclear Cells (PBMC). The test can be described thus: MSD-pSTAT-PBMC Assay (pSTAT6, IL-4 stimulated). In kind it is cell-based, Human. To be noted: Homo sapiens, compound 3 hrs, then 1 ng/mL IL-4 for 10 min. The method in brief:
(§1)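 Human PBMCs were preincubated 3 h with compound, then stimulated 10 min with 10 ng/mL IL-6 (pY705-STAT3) or 1 ng/mL IL-4 (pY641-STAT6). Lysates were read by MSD sandwich immunoassay, capturing total STAT and detecting phospho-STAT. Signal was unstimulated-subtracted and DMSO-normalised, with variable-slope IC50 binned A–D.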

Test [2] has as its system pY705-STAT3 in Peripheral Blood Mononuclear Cells (PBMC). The test can be described thus: MSD-pSTAT-PBMC Assay (pSTAT3, IL-6 stimulated). It is filed as cell-based, Human. The conditions noted are these: Homo sapiens, compound 3 hrs, then 10 ng/mL IL-6 for 10 min. In short, it runs like this:
as §1

The structures appear in SMILES notation.

Regarding `CC(=O)N1CC[C@H]2CC[C@@H](C(=O)N(C)c3ccccc3)N2C(=O)[C@@H](NC(=O)c2cc3cc(C(F)(F)P(=O)(OCOC(=O)C(C)(C)C)OCOC(=O)C(C)(C)C)ccc3s2)C1` [Compound 296, ((((2-(((5S,8S, 10aR)-3-acetyl-8-(methyl (phenyl)carbamoyl)-6-oxodecahydro-pyrrolo[1,2-a][1,5]diazocin-5-yl)carbamoyl)benzo[b]thiophen-5-yl)difluoro-methyl)phos-phoryl)bis(oxy)) bis(methylene) bis(2,2-dimethylpro-panoate)], the figures for the IC50 in test [1] and in test [2] were at most 100 nM and 100 to 1000 nM, respectively.
For `CC(=O)N1CC[C@H]2CC[C@@H](C(=O)N(C)c3ccccc3)N2C(=O)[C@@H](NC(=O)c2cc3cc(C(F)(F)P(=O)(OCOC(=O)C(C)(C)C)OCOC(=O)C(C)(C)C)ccc3[nH]2)C1` [Compound 300, ((((2-(((5S, 8S,10aR)-3-acetyl-8-(methyl (phenyl)carbamoyl)-6-oxodecahydro-pyrrolo[1,2-a][1,5]diazocin-5-yl)carbamoyl)-1H-indol-5-yl)difluoro-methyl)phos-phoryl)bis(oxy)) bis(methylene) bis(2,2-dimethylpro-panoate)] the same measures were 100 to 1000 nM and 100 to 1000 nM.
On the same counts, the results for `CC(=O)N1CC[C@H]2CC[C@@H](C(=O)N3C[C@H](O)[C@@H](n4ccnn4)C3)N2C(=O)[C@@H](NC(=O)c2ccc3ccc(C(F)(F)P(=O)(OCCSC(=O)CC(C)C)OCCSC(=O)CC(C)C)cc3c2)C1` [Compound 305, S,S′-(((((7-(((5S,8S, 10aR)-3-acetyl-8-((3S,4S)-3-hydroxy-4-(1H-1,2,3-triazol-1-yl)pyrrolidine-1-carbonyl)-6-oxodecahydro-pyrrolo[1,2-a][1,5]diazocin-5-yl)carbamoyl)naphthalen-2-yl)difluoro-methyl)phos-phoryl)bis(oxy))bis(ethane-2,1-diyl)) bis(3-methylbutane-thioate)] are above 3000 nM and 1000 to 3000 nM.
On the same counts, the results for `CC(=O)N1CC[C@H]2CC[C@@H](C(=O)N(C)c3ccccc3)N2C(=O)[C@@H](NC(=O)c2cc3cc(C(=O)P(=O)(OCOC(=O)C(C)(C)C)OCOC(=O)C(C)(C)C)ccc3s2)C1` [Compound 307, (((2-(((5S, 8S,10aR)-3-acetyl-8-(methyl (phenyl)carbamoyl)-6-oxo-decahydro-pyrrolo[1,2-a][1,5]diazocin-5-yl)carbamoyl)benzo[b]thiophene-5-carbonyl)phosphoryl)bis(oxy))bis (methylene) bis(2,2-dimethylpro-panoate)] are above 3000 nM and above 3000 nM.
As for `CC(=O)N1CC[C@H]2CC[C@@H](C(=O)Nc3ccc(-c4ccccc4)cc3)N2C(=O)[C@@H](NC(=O)c2cc3cc(C(F)(F)P(=O)(OCOC(=O)C(C)(C)C)OCOC(=O)C(C)(C)C)ccc3[nH]2)C1` [Compound 308, ((((2-(((5S, 8S,10aR)-8-([1,1′-biphenyl]-4-ylcarbamoyl)-3-acetyl-6-oxodecahydro-pyrrolo[1,2-a][1,5]diazocin-5-yl)carbamoyl)-1H-indol-5-yl)difluoro-methyl)phos-phoryl)bis(oxy)) bis(methylene) bis(2,2-dimethylpro-panoate)], the IC50 in test [1] and in test [2] was 100 to 1000 nM throughout.
Turning to `CC(=O)N1CC[C@H]2CC[C@@H](C(=O)Nc3cnc(S(C)(=O)=O)nc3)N2C(=O)[C@@H](NC(=O)c2cc3cc(C(F)(F)P(=O)(OCOC(=O)C(C)(C)C)OCOC(=O)C(C)(C)C)ccc3s2)C1` [Compound 309, ((((2-(((5S, 8S,10aR)-3-acetyl-8-((2-(methyl-sulfonyl)pyrimidin-5-yl)carbamoyl)-6-oxodecahydro-pyrrolo[1,2-a][1,5]diazocin-5-yl)carbamoyl)benzo[b]thiophen-5-yl)difluoro-methyl)phos-phoryl)bis(oxy)) bis(methylene) bis(2,2-dimethylpro-panoate)], the results for the IC50 in test [1] and in test [2] were 1000 to 3000 nM and above 3000 nM, respectively.
In the case of `CC(=O)N1CC[C@H]2CC[C@@H](C(=O)N(C)c3ccc(-c4ccccc4)cc3)N2C(=O)[C@@H](NC(=O)c2cc3cc(C(F)(F)P(=O)(OCOC(=O)C(C)(C)C)OCOC(=O)C(C)(C)C)ccc3s2)C1` [Compound 310, ((((2-(((5S, 8S,10aR)-8-([1,1′-biphenyl]-4-yl(methyl)carbamoyl)-3-acetyl-6-oxodecahydro-pyrrolo[1,2-a][1,5]diazocin-5-yl)carbamoyl)benzo[b]thiophen-5-yl)difluoro-methyl)phos-phoryl)bis(oxy)) bis(methylene) bis(2,2-dimethylpro-panoate)], the IC50 in test [1] and in test [2] was 100 to 1000 nM throughout.
On to `CC(=O)N1CC[C@H]2CC[C@@H](C(=O)N(C)c3ccc(N4CCOCC4)cc3)N2C(=O)[C@@H](NC(=O)c2cc3cc(C(F)(F)P(=O)(OCOC(=O)C(C)(C)C)OCOC(=O)C(C)(C)C)ccc3s2)C1` [Compound 311, ((((2-(((5S, 8S,10aR)-3-acetyl-8-(methyl(4-morpholino-phenyl)carbamoyl)-6-oxodecahydro-pyrrolo[1,2-a][1,5]diazocin-5-yl)carbamoyl)benzo[b]thiophen-5-yl)difluoro-methyl)phos-phoryl)bis(oxy)) bis(methylene) bis(2,2-dimethylpro-panoate)], for which the IC50 in test [1] lay within 100 to 1000 nM; in test [2], 1000 to 3000 nM.
On the same counts, the results for `CC(=O)N1CC[C@H]2CC[C@@H](C(=O)N(C)C3CCN(S(C)(=O)=O)CC3)N2C(=O)[C@@H](NC(=O)c2cc3cc(C(F)(F)P(=O)(OCOC(=O)C(C)(C)C)OCOC(=O)C(C)(C)C)ccc3s2)C1` [Compound 312, ((((2-(((5S, 8S,10aR)-3-acetyl-8-(methyl(1-(methyl-sulfonyl)piperidin-4-yl)carbamoyl)-6-oxodecahydro-pyrrolo[1,2-a][1,5]diazocin-5-yl)carbamoyl)benzo[b]thiophen-5-yl)difluoro-methyl)phos-phoryl)bis(oxy))bis (methylene) bis(2,2-dimethylpro-panoate)] are 100 to 1000 nM and above 3000 nM.
For `CC(=O)N1CC[C@H]2CC[C@@H](C(=O)NC3CCN(S(C)(=O)=O)CC3)N2C(=O)[C@@H](NC(=O)c2cc3cc(C(F)(F)P(=O)(OCOC(=O)C(C)(C)C)OCOC(=O)C(C)(C)C)ccc3s2)C1` [Compound 313, ((((2-(((5S, 8S,10aR)-3-acetyl-8-((1-(methyl-sulfonyl)piperidin-4-yl)carbamoyl)-6-oxodecahydro-pyrrolo[1,2-a][1,5]diazocin-5-yl)carbamoyl)benzo[b]thiophen-5-yl)difluoro-methyl)phos-phoryl)bis(oxy)) bis(methylene) bis(2,2-dimethylpro-panoate)], the IC50 is 1000 to 3000 nM in test [1] and above 3000 nM in test [2].
For `CC(=O)N1CC[C@H]2CC[C@@H](C(=O)Nc3ccc(S(C)(=O)=O)cc3)N2C(=O)[C@@H](NC(=O)c2cc3cc(C(F)(F)P(=O)(OCOC(=O)C(C)(C)C)OCOC(=O)C(C)(C)C)ccc3s2)C1` [Compound 314, ((((2-(((5S, 8S,10aR)-3-acetyl-8-((4-(methyl-sulfonyl)phenyl)carbamoyl)-6-oxodecahydro-pyrrolo[1,2-a][1,5]diazocin-5-yl)carbamoyl)benzo[b]thiophen-5-yl)difluoro-methyl)phos-phoryl)bis(oxy))bis (methylene) bis(2,2-dimethylpro-panoate)] the same measures were 100 to 1000 nM and 1000 to 3000 nM.
For `CC(=O)N1CC[C@H]2CC[C@@H](C(=O)N(C)c3ccccc3)N2C(=O)[C@@H](NC(=O)/C=C/c2ccc(C(F)(F)P(=O)(OCOC(=O)C(C)(C)C)OCOC(=O)C(C)(C)C)cc2)C1` [Compound 315, ((((4-((E)-3-(((5S,8S, 10aR)-3-acetyl-8-(methyl (phenyl)carbamoyl)-6-oxodecahydro-pyrrolo[1,2-a][1,5]diazocin-5-yl)amino)-3-oxoprop-1-en-1-yl)phenyl)difluoro-methyl)phosphoryl)bis(oxy))bis (methylene) bis(2,2-dimethylpro-panoate)] the same measures were 100 to 1000 nM and above 3000 nM.
For `CC(=O)N1CC[C@H]2CC[C@@H](C(=O)N(C)c3ccc(C#N)cc3)N2C(=O)[C@@H](NC(=O)c2cc3cc(C(F)(F)P(=O)(OCOC(=O)C(C)(C)C)OCOC(=O)C(C)(C)C)ccc3s2)C1` [Compound 316, ((((2-(((5S,8S, 10aR)-3-acetyl-8-((4-cyanophenyl) (methyl)carbamoyl)-6-oxodecahydro-pyrrolo[1,2-a][1,5]diazocin-5-yl)carbamoyl)benzo[b]thiophen-5-yl)difluoro-methyl)phos-phoryl)bis(oxy)) bis(methylene) bis(2,2-dimethylpro-panoate)] the same measures were 1000 to 3000 nM and above 3000 nM.
As for `CCOP(=O)(OCC)C(F)(F)c1ccc2sc(C(=O)N[C@H]3CN(C(C)=O)CC[C@H]4CC[C@@H](C(=O)N(C)c5ccccc5)N4C3=O)cc2c1` [Compound 317, diethyl ((2-(((5S,8S, 10aR)-3-acetyl-8-(methyl (phenyl)carbamoyl)-6-oxodecahydro-pyrrolo[1,2-a][1,5]diazocin-5-yl)carbamoyl)benzo[b]thiophen-5-yl)difluoro-methyl)phos-phonate], the IC50 in test [1] and in test [2] was above 3000 nM throughout.
As for `CC(=O)N1CC[C@H]2CC[C@@H](C(=O)N(C)c3ccccc3)N2C(=O)[C@@H](NC(=O)c2cc3cc(C(F)(F)P(=O)(OCOC(=O)OC(C)C)OCOC(=O)OC(C)C)ccc3s2)C1` [Compound 318, ((((2-(((5S,8S, 10aR)-3-acetyl-8-(methyl (phenyl)carbamoyl)-6-oxodecahydro-pyrrolo[1,2-a][1,5]diazocin-5-yl)carbamoyl)benzo[b]thiophen-5-yl)difluoro-methyl)phos-phoryl)bis(oxy)) bis(methylene) diisopropyl bis(carbonate)], the IC50 in test [1] and in test [2] was 100 to 1000 nM each time.

Values taken from US20250179103A1, “6-OXODECAHYDROPYRROLO[1,2-A][1,5]DIAZOCINE AND 6-OXODECAHYDRO-4H-PYRROLO[2,1-D][1,5]THIAZOCINE DERIVATIVES AS STAT3 AND STAT6 MODULATORS FOR THE TREATMENT OF CANCER AND INFLAMMATORY CONDITIONS” (Recludix Pharma, Inc., priority 2022, published 2025).
